16 compounds from article PMC13626384 (Journal of medicinal chemistry, 2025) can be followed below.

Where two headings read alike, the source gives them in different places. A value given as a limit tells only on which side of the number the result lay.

One data set relates to SF188 cell line. The experiment in a line: Cytotoxicity against SF188 cells. The format is cell-based, human.
A further data set relates to D283-med cell line. The experiment in a line: Cytotoxicity against D283-med cells. Format: cell-based, human.
In a further data set the test system is H460 cell line. In words: Cytotoxicity against H460 cells. Particulars: read-out: H460 IC50; non-small cell lung cancer cell line. Format: cell-based.
Data set [1] can be described thus: PAMPA-BBB permeability assay. Background: In PAMPA a lipid-coated filter parts donor from acceptor wells.
Where [2] appears, read: read-out: SF188 IC50, glioblastoma cell line.
[3] abbreviates: read-out: D283-med IC50, medulloblastoma cell line.
Where [4] appears, read: Homo sapiens, SF-188, read-out: SF188 IC50, glioblastoma cell line.
The mark [5] stands for this setting: Homo sapiens, D283 Med, read-out: D283-med IC50, medulloblastoma cell line.

Consider `CC(=O)O[C@@H](C)[C@@H]1NC(=O)Cc2cccc(c2)S(=O)(=O)c2c(F)c(F)c(c(F)c2F)C[C@@H](C(=O)N[C@@H](CC(C)C)C(=O)[C@@]2(C)CO2)NC1=O` [Compound 28, (S)-1-((5S,8S)-3^2,3^3,3^5,3^6-Tetrafluoro-5-(((S)-4-methyl-1-((R)-2-methyloxiran-2-yl)-1-oxopentan-2-yl)carbamoyl)-2,2-dioxido-7,10-dioxo-2-thia-6,9-diaza-1(1,3),3(1,4)-dibenzenacycloundecaphane-8-yl)ethyl acetate], for which the IC50 – broadly, the concentration that inhibits the measured activity by half – amounted to 148 ± 35 nM with SF188 cell line (setting [2]), 44 ± 6 nM in the data set on D283-med cell line (setting [3]) and 549 ± 21 nM in the data set with H460 cell line.
As for `CC(C)C[C@H](NC(=O)[C@@H]1Cc2c(F)c(F)c(c(F)c2F)Sc2cccc(c2)CC(=O)NCC(=O)N1)C(=O)[C@@]1(C)CO1` [Compound 21, (S)-32,33,35,36-Tetrafluoro-N-((S)-4-methyl-1-((R)-2-methyloxiran-2-yl)-1-oxopentan-2-yl)-7,10-dioxo-2-thia-6,9-diaza-1(1,3),3(1,4)-dibenzenacycloundecaphane-5-carboxamide], the IC50 in the data set on SF188 cell line (setting [2]) is above 15000 nM; in the data set with D283-med cell line (setting [3]), 5000 nM; in the data set with H460 cell line, above 15000 nM.
In the case of `CC(C)C[C@H](NC(=O)[C@@H]1Cc2c(F)c(F)c(c(F)c2F)[S+]([O-])c2cccc(c2)CC(=O)N[C@@H](C(C)(C)O)C(=O)N1)C(=O)[C@@]1(C)CO1` (stereo partly drawn) [Compound 23, (5S,8S)-3^2,3^3,3^5,3^6-Tetrafluoro-8-(2-hydroxypropan-2-yl)-N-((S)-4-methyl-1-((R)-2-methyloxiran-2-yl)-1-oxopentan-2-yl)-7,10-dioxo-2-thia-6,9-diaza-1(1,3),3(1,4)-dibenzenacycloundecaphane-5-carboxamide 2-oxide], the IC50 worked out at 205 ± 21 nM with SF188 cell line (setting [2]), 176 ± 2 nM with D283-med cell line (setting [3]) and 1640 ± 87 nM with H460 cell line.
Consider `CC(C)C[C@H](NC(=O)[C@@H]1Cc2c(F)c(F)c(c(F)c2F)S(=O)(=O)c2cccc(c2)CC(=O)NCC(=O)N1)C(=O)[C@@]1(C)CO1` [Compound 32, (S)-32,33,35,36-Tetrafluoro-N-((S)-4-methyl-1-((R)-2-methyloxiran-2-yl)-1-oxopentan-2-yl)-7,10-dioxo-2-thia-6,9-diaza-1(1,3),3(1,4)-dibenzenacycloundecaphane-5-carboxamide 2,2-dioxide], for which the results for the concentration for half-maximal inhibition (IC50) in the data set with SF188 cell line (setting [2]), in the data set with D283-med cell line (setting [3]) and with H460 cell line were 7230 nM, 563 ± 46 nM and 4540 nM, respectively.
For `CC(C)C[C@H](NC(=O)[C@@H]1Cc2c(F)c(F)c(c(F)c2F)Sc2cccc(c2)CC(=O)N[C@H](C(C)C)CC(=O)N1)C(=O)[C@@]1(C)CO1` [Compound 16, (5S,9S)-3^2,3^3,3^5,3^6-Tetrafluoro-9-isopropyl-N-((S)-4-methyl-1-((R)-2-methyloxiran-2-yl)-1-oxopentan-2-yl)-7,11-dioxo-2-thia-6,10-diaza-1(1,3),3(1,4)-dibenzenacyclododecaphane-5-carboxamide], in that order: above 15000 nM, 6090 nM and above 15000 nM.
In the same order, the values of “(S)-10,10-Dimethyl-N-((S)-4-methyl-1-((R)-2-methyloxiran-2-yl)-1-oxopentan-2-yl)-8,11-dioxo-2-oxa-9,12-diaza-1(1,4)-benzenacyclotetradecaphane-13-carboxamide [Compound 34]” are 2910 nM, 2080 nM and 4520 nM.
Turning to `CC(C)C[C@H](NC(=O)[C@@H](CSc1c(F)c(F)c(F)c(F)c1F)NC(=O)c1cc(Cl)ccc1Cl)C(=O)[C@@]1(C)CO1` [Compound 6, 2,5-Dichloro-N-((S)-1-(((S)-4-methyl-1-((R)-2-methyloxiran-2-yl)-1-oxopentan-2-yl)amino)-1-oxo-3-((perfluorophenyl)thio)propan-2-yl)benzamide], the IC50 was 4080 ± 770 nM in the data set with SF188 cell line (setting [4]) and above 10000 nM in the data set with D283-med cell line (setting [5]).
For `CC(C)C[C@H](NC(=O)[C@@H]1Cc2c(F)c(F)c(c(F)c2F)Sc2cccc(c2)CC(=O)N[C@@H](C(C)(C)C)C(=O)N1)C(=O)[C@@]1(C)CO1` [Compound 12, (5S,8S)-8-(Tert-butyl)-3^2,3^3,3^5,3^6-tetrafluoro-N-((S)-4-methyl-1-((R)-2-methyloxiran-2-yl)-1-oxopentan-2-yl)-7,10-dioxo-2-thia-6,9-diaza-1(1,3),3(1,4)-dibenzenacycloundecaphane-5-carboxamide], the IC50 in the data set on SF188 cell line (setting [2]) amounted to 507 ± 134 nM; in the data set with D283-med cell line (setting [3]) it was 432 ± 74 nM; in the data set on H460 cell line, 2470 nM.
In the case of `CC(C)C[C@H](NC(=O)CNC(=O)Cc1c(F)c(F)c(F)c(F)c1F)C(=O)[C@@]1(C)CO1` [Compound 7, N-((S)-4-Methyl-1-((R)-2-methyloxiran-2-yl)-1-oxopentan-2-yl)-2-(2-(perfluorophenyl)acetamido)acetamide], the concentration for half-maximal inhibition (IC50) in the data set on SF188 cell line (setting [4]) and with D283-med cell line (setting [5]) was above 10000 nM each time.
Turning to `CCCCCC(=O)N[C@H](C(=O)N[C@@H](CCS(C)(=O)=O)C(=O)N[C@@H](CC(C)C)C(=O)[C@@]1(C)CO1)C(C)C` [Carmaphycin B, reference compound], the IC50 with SF188 cell line (setting [2]) is 19 ± 2 nM; in the data set with D283-med cell line (setting [3]), 13 ± 2 nM; in the data set on H460 cell line, 111 ± 30 nM.
On to `CC(C)C[C@H](NC(=O)C(CSc1c(F)c(F)c(F)c(F)c1F)NC(=O)[C@@H](NC(=O)Cc1c(F)c(F)c(F)c(F)c1F)C(C)C)C(=O)[C@@]1(C)CO1` (stereo in doubt) [Compound 3, (S)-3-Methyl-N-((S)-1-(((S)-4-methyl-1-((R)-2-methyloxiran-2-yl)-1-oxopentan-2-yl)amino)-1-oxo-3-((perfluorophenyl)thio)propan-2-yl)-2-(2-(perfluorophenyl)acetamido)butanamide], for which the IC50 in the data set on SF188 cell line (setting [4]) was determined as 213 ± 10 nM; with D283-med cell line (setting [5]) it was 102 ± 7 nM.
In the case of `Cc1ncc2n1-c1ccc(Cl)cc1C(c1ccccc1F)=NC2` [Midazolam, reference compound], in data set [1] (PAMPA), the apparent permeability coefficient (Papp) (usually a coefficient for how fast a substance crosses the barrier) was 6.8 ×10⁻⁶ cm/s and the recovery turned out to be 84%.
`Cn1c(=O)c2[nH]cnc2n(C)c1=O` [Theophylline, reference compound]: the recovery in data set [1] (PAMPA, % Recovery, PAMPA-BBB) amounted to 96%.
With `CC(C)C[C@H](NC(=O)CNC(=O)c1cc(Cl)ccc1Cl)C(=O)[C@@]1(C)CO1` [Compound 8, 2,5-Dichloro-N-(2-(((S)-4-methyl-1-((R)-2-methyloxiran-2-yl)-1-oxopentan-2-yl)amino)-2-oxoethyl)benzamide], the IC50 is 532 ± 23 nM with SF188 cell line (setting [4]) and 3700 ± 270 nM in the data set with D283-med cell line (setting [5]).
Consider `CCCCCC(=O)N[C@H](C(=O)NC(CSc1c(F)c(F)c(F)c(F)c1F)C(=O)N[C@@H](CC(C)C)C(=O)[C@@]1(C)CO1)C(C)C` (stereo in doubt) [Compound 1, N-((S)-3-Methyl-1-(((S)-1-(((S)-4-methyl-1-((R)-2-methyloxiran-2-yl)-1-oxopentan-2-yl)amino)-1-oxo-3-((perfluorophenyl)thio)propan-2-yl)amino)-1-oxobutan-2-yl)hexanamide], for which the 50% inhibitory concentration (IC50) with SF188 cell line (setting [4]) was determined as 143 ± 18 nM; with D283-med cell line (setting [5]), 236 ± 27 nM. For the same compound, the “Mean Permeability” value in data set [1] (PAMPA-BBB) is 0.63 10^−6 cm/sec.
On to `CC(C)C[C@H](NC(=O)[C@@H]1Cc2c(F)c(F)c(c(F)c2F)Sc2ccc(cc2)CC(=O)N[C@@H](C(C)C)C(=O)N1)C(=O)[C@@]1(C)CO1` [Compound 9, (5S,8S)-3^2,3^3,3^5,3^6-Tetrafluoro-8-isopropyl-N-((S)-4-methyl-1-((R)-2-methyloxiran-2-yl)-1-oxopentan-2-yl)-7,10-dioxo-2-thia-6,9-diaza-1,3(1,4)-dibenzenacycloundecaphane-5-carboxamide], for which the results for the IC50 in the data set on SF188 cell line (setting [2]) and in the data set with H460 cell line were 87 nM and 754 nM, respectively.
